According to patent US20230105212A1, “BIPHENYL DERIVATIVE INHIBITOR, PREPARATION METHOD THEREFOR AND USE THEREOF” (SHANGHAI HANSOH BIOMEDICAL CO., LTD., priority 2020, published 2023):

Target: T1, hERG potassium channel (Homo sapiens, UniProt Q12809)
T1 construct: expressed in transfected cells; host or cells: CHO-hERG cells
Test: Inhibitory activity test of hERG potassium channel (Qpatch, CHO-hERG cells)
Type: cell-based
Details: 6 concentrations up to 40 μM
Procedure: Test Embodiment 9. Inhibitory Activity Test of hERG Potassium Channel
1.1 CHO-hERG cells were cultured in a 175 cm^2 culture flask. When the cell density reached 60 to 80%, the culture medium was removed, washed with 7 mL of PBS, and then digested with 3 mL of Detachin.
1.2 After the digestion was completed, 7 mL of culture medium was added to neutralize, then centrifuged, and the supernatant was aspirated, and 5 mL of culture medium was added to resuspend to ensure the cell density was 2 to 5×10^6/mL.
Single-cell high-impedance sealing and whole-cell pattern formation were all performed automatically by the Qpatch instrument. After the whole-cell recording pattern was obtained, the cell was clamped at −80 mV, before a +40 mV depolarizing stimulus for 5 s was given, a pre-voltage of −50 mV for 50 ms was given, then repolarized to −50 mV for 5 s, and then returned to −80 mV. This voltage stimulus was applied every 15 seconds, and recorded for 2 minutes, then the extracellular solution was given and then recorded for 5 minutes. Then the dosing process was started. The compound concentration started from the lowest test concentration, and each test concentration was administered for 2.5 minutes. After all concentrations were continuously administered, the positive control compound 3 μM Cisapride was administered. […]
The experimental data was analyzed by XLFit software.

T1 sequence (Q12809 whole entry): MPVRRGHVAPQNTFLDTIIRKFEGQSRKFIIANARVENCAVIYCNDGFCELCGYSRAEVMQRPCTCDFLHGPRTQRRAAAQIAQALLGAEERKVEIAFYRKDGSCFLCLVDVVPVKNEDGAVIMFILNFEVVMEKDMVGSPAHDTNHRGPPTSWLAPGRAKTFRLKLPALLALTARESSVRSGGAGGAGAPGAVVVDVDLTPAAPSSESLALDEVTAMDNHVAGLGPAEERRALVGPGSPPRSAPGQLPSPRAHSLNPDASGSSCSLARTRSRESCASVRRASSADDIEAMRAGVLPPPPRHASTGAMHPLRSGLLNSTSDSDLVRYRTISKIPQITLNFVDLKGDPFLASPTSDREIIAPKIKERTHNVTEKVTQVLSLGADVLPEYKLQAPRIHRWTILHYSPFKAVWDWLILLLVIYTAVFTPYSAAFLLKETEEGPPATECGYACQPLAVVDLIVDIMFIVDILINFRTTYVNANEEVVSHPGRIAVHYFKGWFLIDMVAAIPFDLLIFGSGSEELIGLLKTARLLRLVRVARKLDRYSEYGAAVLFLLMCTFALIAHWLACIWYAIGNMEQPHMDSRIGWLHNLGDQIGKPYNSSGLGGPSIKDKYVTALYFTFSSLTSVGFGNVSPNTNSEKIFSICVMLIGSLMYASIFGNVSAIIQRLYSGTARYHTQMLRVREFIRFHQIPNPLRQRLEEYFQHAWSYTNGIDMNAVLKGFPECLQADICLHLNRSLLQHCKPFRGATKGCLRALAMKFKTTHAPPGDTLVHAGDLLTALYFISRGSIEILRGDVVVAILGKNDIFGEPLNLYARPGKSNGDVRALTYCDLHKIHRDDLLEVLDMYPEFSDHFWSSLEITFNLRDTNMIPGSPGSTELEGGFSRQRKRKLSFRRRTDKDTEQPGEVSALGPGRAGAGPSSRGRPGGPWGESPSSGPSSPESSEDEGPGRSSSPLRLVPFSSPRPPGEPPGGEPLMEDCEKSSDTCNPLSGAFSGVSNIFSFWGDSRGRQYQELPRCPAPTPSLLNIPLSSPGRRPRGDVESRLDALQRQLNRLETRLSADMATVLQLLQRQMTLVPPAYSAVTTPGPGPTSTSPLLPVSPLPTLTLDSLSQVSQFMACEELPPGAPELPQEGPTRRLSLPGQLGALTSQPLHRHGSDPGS

`COc1nc(-c2cccc(-c3cccc(NC(=O)c4nc5c(n4C)CCN(C)C5)c3Cl)c2Cl)ncc1CN1CC(CO)C1` [Embodiment 223, N-(2,2′-Dichloro-3′-(5-((3-(hydroxymethyl)azetidin-1-yl)methyl)-4-methoxypyrimidin-2-yl)-[1,1′-biphenyl]-3-yl)-1,5-dimethyl-4,5,6,7-tetrahydro-1H-imidazo[4,5-c]pyridine-2-carboxamide] was tested, and the IC50 was 14.8 µM.
